Assay results reported in patent publication US20070167510A1, “Methods for inhibiting osteoclastogenesis” (priority 2006, published 2007).

Columns and labels:
[1] = tested on: non-adherent mononuclear bone marrow cells from healthy donors; assay type: cell-based
Protocol: (§1) Non-adherent mononuclear cells (10^5 cells/well) from either healthy donor or multiple myeloma patients, as well as purified human CD34^+ cells, were seeded in 96-well multi-plates at 100 μl/well in α-MEM medium containing 20% horse serum, 10 ng/ml M-CSF and 50 ng/ml RANKL. […] Half media change was carried out twice a week.
(§2) The culture was incubated for a total of 3 weeks at 37° C. in an incubator of 5% CO2-air. OCL formation was assessed by staining with monoclonal antibody 23c6, which recognizes the CD51/61 dimer on the osteoclast vitronectin receptor (generously provided by Michael Horton, Rayne Institute, Bone and Mineral Center, London, UK), using a Vectastatin-ABC-AP kit (Vector Laboratories, Inc. Burlingame, Calif.). The 23c6^+ multinucleated osteoclasts containing 3 or more nuclei per osteoclast were scored using an inverted microscope. For RAW 264.7 cells, OCL differentiation assay was carried out in 96-well plates. […] Half media change was performed every 2-3 days by replacing with fresh medium containing RANKL with or without tested drugs. Cells were fixed and stained with TRAP-staining kit (Sigma-Aldrich) according to the manufacturer's instructions. TRAP-positive multinuclear cells (>3 nuclei) were counted under the inverted microscope.

[2] = tested on: IFN-γ; assay: Bio-plex cytokine assay of osteoclast culture supernatants: IFN-γ; assay type: cell-based, human; settings: three weeks treatment
Protocol: (§3) Supernatants collected on day 5, 9, 12, 16 and 21 were analyzed for expression of IL-1α, IL-1β, IL-2, IL-3, IL-4, IL-5, IL-6, IL-7, IL-8, IL-9, IL-10, IL-13, IL-15, IL-17, IL-12p40, IFNα, IFNγ, TNF-α, TNFR-I, TNFR-II, G-CSF, GM-CSF, MCP-1, MIP-1α, MIP-1β, MIG, IP-10, EOTAXIN, RANTES, DR5, EGF, VEGF, FGF-b, and HGF by Bio-plex Cytokine Assay (BIO-RAD Laboratories, USA).

[3] = tested on: CD34+ cells (hematopoietic progenitors); assay: Colony assays in methylcellulose; assay type: cell-based, human; settings: 14 days
Protocol: Methocult GF H4434 contained the following hematopoietic growth factors: recombinant human (rh) Erythropoietin 3 U/ml, rh SCF 50 ng/ml, rh granulocyte-macrophage colony-stimulating factor (GM-CSF) 10 ng/ml, and rh IL-310 ng/ml as well as Methylcellulose (1%), Fetal Bovine Serum 30%, Bovine Serum Albumin (1%), 2-Mercaptoethanol ([…]), and L-glutamine (2 mM). Cells were incubated in at 37° C., 5% CO2 with 95% humidity for 14-16 days. Formation and relative distribution of burst forming unit-erythroid (BFU-E), colony forming unit-macrophages (CFU-M) and colony forming unit-granulocyte, macrophage (CFU-GM) colonies were evaluated by scoring under an inverted microscope. Each colony experiment was carried out in triplicate.

[4] = tested on: RAW 264.7 cells; assay: Cellular viability of RAW 264.7 cells; assay type: cell-based, mouse; settings: data not shown
[5] = tested on: bone marrow cells from healthy donor on whale dentin slices; assay: Osteoclastic bone resorption on dentin slices; assay type: cell-based, human; settings: 3 weeks
Protocol: Bone marrow cells from healthy donor (2×10^5 cells/well) were seeded on whale dentin slices in 96-well multi-plates at 100 μl/well in α-MEM medium containing 20% horse serum. In addition, 10 ng/ml M-CSF and 50 ng/ml RANKL were added. Half media changes were performed twice a week with fresh media. […] Culture was continued for 3 weeks at 37° C. in an incubator of 5% CO2-air. After 3 weeks, dentin slices were stained with TRAP staining to confirm the osteoclast formation. Then, bone resorption lacunae were stained with hematoxylin. Pit area was quantified by using the public domain NIH ImageJ program. Fixed small representative areas on dentin slices selected and the mean resorption areas were determined.

[6] = tested on: MC-42 cells; assay: Osteoblast mineralization (von Kossa); assay type: cell-based, mouse; settings: 48 hours, 5.0 mM inorganic phosphate
Source text: (§4) Cells were then harvested for luciferase and ALP (alkaline phosphatase) activity assay. Luciferase and ALP activity were normalized to total protein content of the sample (Xiao G et al. (1997) Mol. Endocrinol. 11:1103-13). […] Samples were then stained using the Von Kossa method (Xiao G et al. (1998) J. Biol. Chem. 273:32988-94).

[7] = tested on: non-adherent mononuclear bone marrow cells from multiple myeloma patients; assay: Osteoclast formation assay, MM patient bone marrow; assay type: cell-based, human
Protocol: as §1, §2

[8] = tested on: CFU-GM colony cells (osteoclast precursors); assay: Osteoclast formation assay with purified CFU-GM cells; assay type: cell-based, human
[9] = tested on: MM cell lines and freshly isolated primary MM cells; settings: Yasui H et al., 2005; cited from earlier work
[10] = tested on: OPM2 cells; assay: Proliferation assay (3H-thymidine incorporation), OPM2; assay type: cell-based, human; settings: 48 hours
Protocol: (§5) DNA synthesis was measured by ^3H-thymidine incorporation (3H-TdR; NEN Products, Zaventem, Belgium). Cells were pulsed with ^3H-thymidine (1 μCi/well) during the last 8 hours of culture, harvested onto glassfibre filter mats (Wallac, Gaithersburg, Md.) with an automatic cell harvester (Tomtec Harvester 960 MachIII), and counted using Wallac TriLux Beta plate scintillation counter. All experiments were performed in triplicate.

[11] = tested on: MIP-1α; assay: Bio-plex cytokine assay of osteoclast culture supernatants: MIP-1α; assay type: cell-based, human; settings: day four; controls 12,000
Source text: […] of IL-1α, IL-1β, IL-2, IL-3, IL-4, IL-5, IL-6, IL-7, IL-8, IL-9, IL-10, IL-13, IL-15, IL-17, IL-12p40, IFNα, IFNγ, TNF-α, TNFR-I, TNFR-II, G-CSF, GM-CSF, MCP-1, MIP-1α, MIP-1β, MIG, IP-10, EOTAXIN, RANTES, DR5, EGF, VEGF, FGF-b, and HGF by Bio-plex Cytokine Assay (BIO-RAD Laboratories, USA).

[12] = tested on: MM.1S cells; assay: Proliferation assay (3H-thymidine incorporation), MM.1S; assay type: cell-based, human; settings: 48 hours
Protocol: as §5

[13] = tested on: RPMI-8226 cells; assay: Proliferation assay (3H-thymidine incorporation), RPMI-8226; assay type: cell-based, human; settings: RPMI-1822 / RPMI cells as printed, 48 hours
Protocol: as §5

[14] = tested on: IκBα; assay: Western blot of IκBα phosphorylation and degradation, MM.1S; assay type: cell-based, human
Protocol: For detection of p65 translocation, cellular nuclear and cytoplasmic extracts were prepared with Nuclear and Cytoplasmic Extraction Reagents (Pierce, Rockford, Ill.). Cell lysates (20-40 μg) were subjected to 10% sodium dodecyl sulfate-polyacrylamide gel electrophoresis and transferred to PVDF membrane (Millipore, Danvers, Mass.). The blots were probed with anti-p65, anti-phospho p65, anti-IκB-α, anti-phospho IκB-α, or anti-phospho IKK-γ (all from Cell Signaling, Beverly, Mass.), and beta-actin antibody (Amersham, Piscataway, N.J.). Immune complexes were detected using enhanced chemiluminescence (Amersham).

[15] = tested on: MC-42 cells (MC3T3-E1 pre-osteoblastic); assay: Osteoblast differentiation: ALP activity; assay type: cell-based, mouse; settings: SDX-101 75 μM, SDX-308 7.5 μM, 24 hours
Source text: as §4

[16] = tested on: MIG (monokine induced by IFN-gamma); assay: Bio-plex cytokine assay of osteoclast culture supernatants: MIG; assay type: cell-based, human; settings: three weeks treatment
Protocol: as §3

[17] = tested on: RAW 264.7 cells; assay: RANKL-induced OCL differentiation of RAW 264.7 cells (TRAP); assay type: cell-based, murine; settings: 5 days, RANKL 50 ng/ml, SDX-101 75 μM, SDX-308 7.5 μM
Protocol: as §2

**Q.** Which “doses exhibiting inhibition of OCL formation” value ([1]; 3 weeks, RANKL 50 ng/ml, M-CSF 10 ng/ml) does the source give for `CCc1cccc2c3c([nH]c12)[C@@](CC)(CC(=O)O)OCC3` [SDX-101, R-etodolac] here?
**A.** over 50 μM

**Q.** What about the “cell death during the 3 week OCL formation assay” value ([1]; any doses tested) of the same compound?
**A.** No cell death was observed

**Q.** What about the “inhibition of OCL formation, time course of drug addition” value ([1]; healthy donor cells, SDX-101 75 μM, SDX-308 7.5 μM, 3 weeks vs first/last 1 or 2 weeks) of the same compound?
**A.** significantly higher when drug was added during the entire 3 weeks

**Q.** What about the “inhibition of RANK-L/M-CSF-induced human osteoclastogenesis” value ([1]; healthy donor cultures, 21-day assay, SDX-101 30 to 100 μM, SDX-308 3 to 10 μM) of the same compound?
**A.** dose-dependent inhibition

**Q.** And the “IFN-γ secretion in osteoclast formation assays” value [2]?
**A.** significantly decreased

**Q.** What about the “number of the CFU colonies formed compared to untreated cells” value ([3]; CD34+ cells) of the same compound?
**A.** not significantly different

**Q.** What about the “interference with hematopoietic lineage commitment” value ([3]; SDX-101 30, 50, 75 μM, SDX-308 1, 5, 7.5 μM) of the same compound?
**A.** none of the doses tested for both SDX derivatives interferes

**Q.** What about the “cellular viability, drug alone” value [4] of the same compound?
**A.** no significant effects

**Q.** And the “measured bone resorption area” value ([5]; 75 μM, untreated control 8.6)?
**A.** 1.3 mm^2

**Q.** And the bone resorption ([5]; SDX-101 75 μM, SDX-308 7.5 μM)?
**A.** inhibited significantly

**Q.** What about the “mineralization of osteoblasts (von Kossa staining)” value [6] of the same compound?
**A.** did not inhibit mineralization

**Q.** And the “inhibition of OCL formation, time course of drug addition” value ([7]; MM patient cells, SDX-101 75 μM, SDX-308 7.5 μM, 3 weeks vs first/last 1 or 2 weeks)?
**A.** significantly higher when drug was added during the entire 3 weeks

**Q.** What about the “inhibition of RANK-L/M-CSF-induced human osteoclastogenesis” value ([7]; MM patient cultures, 21-day assay, SDX-101 30 to 100 μM, SDX-308 3 to 10 μM) of the same compound?
**A.** dose-dependent inhibition

**Q.** And the “osteoclast inhibition by time point of drug addition” value ([8]; first 1, 2 or 3 weeks or last 1, 2 or 3 weeks)?
**A.** no differences in osteoclast inhibition

**Q.** And the “osteoclast numbers formed from osteoclast progenitor cells” value ([8]; purified CFU-GM cells, 21 days)?
**A.** significantly decreased osteoclast numbers

**Q.** And the apoptosis [9]?
**A.** induces apoptosis

**Q.** And the “concentration at which DNA synthesis (thymidine incorporation) was significantly inhibited” value [10]?
**A.** 100 µM

**Q.** What about the MIP-1α in supernatant [11] of the same compound?
**A.** 6,000 pg/ML

**Q.** What about the “concentration at which DNA synthesis (thymidine incorporation) was significantly inhibited” value [12] of the same compound?
**A.** 10 µM

**Q.** And the “concentration at which DNA synthesis (thymidine incorporation) was significantly inhibited” value [13]?
**A.** 100 µM

**Q.** And the “TNF-induced IκBα phosphorylation and degradation” value [14]?
**A.** minor or no obvious effect

**Q.** And the ALP activity [15]?
**A.** did not decrease the ALP activity

**Q.** What about the “MIG secretion in osteoclast formation assays” value [16] of the same compound?
**A.** significantly decreased

**Q.** What about the “RANKL-induced OCL formation from RAW 264.7 cells” value [17] of the same compound?
**A.** suppressed
